# Experimental data taken from patent US20110182982A1, “LIPOSOME TREATMENT OF VIRAL INFECTIONS” (University of Oxford, priority 2006, published 2011).
# Tests used:
# Assay in all cases: p24 secretion of HIV-1-infected PBMCs
# Format in all cases: cell-based
# Details in all cases: for % p24 secretion Week 1-rb / % p24 secretion Week 2-rb / % p24 secretion Week 3-rb / % p24 secretion Week 4-rb: treatment removed 2 weeks
# HIV-1 isolate: BR93020 = test system: HIV-1 isolate: BR93020
# Description: (§1) Clearance of HIV-1 primary isolates from infected human cells by NB-DNJ was assessed using phytohemagglutinin (PHA)-activated peripheral blood mononuclear cells (PBMCs) as indicator cells and the determination of p24 antigen production as the end point.
# (§2) PBMCs from four normal (uninfected) donors were isolated, pooled, and stimulated with PHA (5 μg/ml) for 48 h followed by PHA plus interleukin-2 (40 U/ml) for 72 h in RPMI 1640 medium containing 10% heat-inactivated fetal bovine serum (FBS), 100 U of penicillin per ml, 100 μg of streptomycin per ml, and 2 mM L-glutamine. All experiments were performed in 96-well microtiter plates. To infect cells, 100 μl of PHA-activated PBMCs (5×10^5/ml) was added to each well, after which an equal volume containing 100 50% tissue culture infective doses (TCID50) of primary isolate stock was added. After an overnight incubation, the cells were washed three times with tissue culture medium, and finally re-suspended in medium containing the appropriate liposome treatment or free NB-DNJ. On day 7, approximately 10-30% of the culture volume containing secreted HIV-1 virions was used to infect naïve PBMCs for a second round of infection and treatment (volume transferred was calculated to be the volume necessary for the untreated control of that isolate to infect naïve cells at a TCID50=100). Rounds of treatment and infection of naïve cells were continued over four weeks, and at every time point cellular supernatant containing secreted virions was isolated and used in capture ELISAs to determine p24 concentration (measure of secretion). Additionally, supernatant isolated at each time point throughout treatment was used to infect naïve PBMCs (TCID50=100) for two weeks with no further treatment, which allowed for the observation of a rebound in viral activity.
# (§3) PBMCs infected with 8 primary isolates (listed in Table 3) were incubated in the presence of free NB-DNJ (concentrations ranging 0-1 mM) or liposome-encapsulated NB-DNJ (0-3.75 μM, final lipid concentration of 50 μM).
# HIV-1 isolate: JR-FL = test system: HIV-1 isolate: JR-FL
# Description: as §1, §2, §3
# HIV-1 isolate: 97USNG30 = test system: HIV-1 isolate: 97USNG30
# Description: as §1, §2, §3
# HIV-1 isolate: 93IN101 = test system: HIV-1 isolate: 93IN101
# Description: as §1, §2, §3
# [1] = Human immunodeficiency virus 1, PBMC, free, three rounds of treatment
# [2] = 1 mM free in medium, first week
smiles,measurement,setting,value
"CCCCN1C[C@H](O)[C@@H](O)[C@H](O)[C@H]1CO [NB-DNJ, N-butyl-1,5-dideoxy-1,5-imino-D-glucitol]",IC50,HIV-1 isolate: BR93020; [1],250 µM
same,IC90,HIV-1 isolate: BR93020; [1],375 µM
same,% p24 secretion Week 1,HIV-1 isolate: BR93020; NB-DNJ 250 uM,89%
same,% p24 secretion Week 2,HIV-1 isolate: BR93020; NB-DNJ 250 uM,74%
same,% p24 secretion Week 3,HIV-1 isolate: BR93020; NB-DNJ 250 uM,53%
same,% p24 secretion Week 4,HIV-1 isolate: BR93020; NB-DNJ 250 uM,55%
same,% p24 secretion Week 1-rb,HIV-1 isolate: BR93020; NB-DNJ 250 uM,97%
same,% p24 secretion Week 2-rb,HIV-1 isolate: BR93020; NB-DNJ 250 uM,77%
same,% p24 secretion Week 3-rb,HIV-1 isolate: BR93020; NB-DNJ 250 uM,71%
same,% p24 secretion Week 4-rb,HIV-1 isolate: BR93020; NB-DNJ 250 uM,59%
same,% p24 secretion Week 1,HIV-1 isolate: BR93020; NB-DNJ 500 uM,60%
same,% p24 secretion Week 2,HIV-1 isolate: BR93020; NB-DNJ 500 uM,19%
same,% p24 secretion Week 3,HIV-1 isolate: BR93020; NB-DNJ 500 uM,1%
same,% p24 secretion Week 4,HIV-1 isolate: BR93020; NB-DNJ 500 uM,1%
same,% p24 secretion Week 1-rb,HIV-1 isolate: BR93020; NB-DNJ 500 uM,68%
same,% p24 secretion Week 2-rb,HIV-1 isolate: BR93020; NB-DNJ 500 uM,3%
same,% p24 secretion Week 3-rb,HIV-1 isolate: BR93020; NB-DNJ 500 uM,0%
same,% p24 secretion Week 4-rb,HIV-1 isolate: BR93020; NB-DNJ 500 uM,1%
same,% p24 secretion Week 1,HIV-1 isolate: BR93020; NB-DNJ 1000 uM,58%
same,% p24 secretion Week 2,HIV-1 isolate: BR93020; NB-DNJ 1000 uM,2%
same,% p24 secretion Week 3,HIV-1 isolate: BR93020; NB-DNJ 1000 uM,0%
same,% p24 secretion Week 4,HIV-1 isolate: BR93020; NB-DNJ 1000 uM,0%
same,% p24 secretion Week 1-rb,HIV-1 isolate: BR93020; NB-DNJ 1000 uM,44%
same,% p24 secretion Week 2-rb,HIV-1 isolate: BR93020; NB-DNJ 1000 uM,0%
same,% p24 secretion Week 3-rb,HIV-1 isolate: BR93020; NB-DNJ 1000 uM,0%
same,% p24 secretion Week 4-rb,HIV-1 isolate: BR93020; NB-DNJ 1000 uM,0%
same,reduction in viral secretion,HIV-1 isolate: JR-FL; [2],50%
same,% p24 secretion Week 1,HIV-1 isolate: JR-FL; NB-DNJ 250 uM,107%
same,% p24 secretion Week 2,HIV-1 isolate: JR-FL; NB-DNJ 250 uM,105%
same,% p24 secretion Week 3,HIV-1 isolate: JR-FL; NB-DNJ 250 uM,89%
same,% p24 secretion Week 4,HIV-1 isolate: JR-FL; NB-DNJ 250 uM,93%
same,% p24 secretion Week 1-rb,HIV-1 isolate: JR-FL; NB-DNJ 250 uM,104%
same,% p24 secretion Week 2-rb,HIV-1 isolate: JR-FL; NB-DNJ 250 uM,101%
same,% p24 secretion Week 3-rb,HIV-1 isolate: JR-FL; NB-DNJ 250 uM,97%
same,% p24 secretion Week 4-rb,HIV-1 isolate: JR-FL; NB-DNJ 250 uM,91%
same,% p24 secretion Week 1,HIV-1 isolate: JR-FL; NB-DNJ 500 uM,64%
same,% p24 secretion Week 2,HIV-1 isolate: JR-FL; NB-DNJ 500 uM,24%
same,% p24 secretion Week 3,HIV-1 isolate: JR-FL; NB-DNJ 500 uM,5%
same,% p24 secretion Week 4,HIV-1 isolate: JR-FL; NB-DNJ 500 uM,0%
same,% p24 secretion Week 1-rb,HIV-1 isolate: JR-FL; NB-DNJ 500 uM,75%
same,% p24 secretion Week 2-rb,HIV-1 isolate: JR-FL; NB-DNJ 500 uM,9%
same,% p24 secretion Week 3-rb,HIV-1 isolate: JR-FL; NB-DNJ 500 uM,4%
same,% p24 secretion Week 4-rb,HIV-1 isolate: JR-FL; NB-DNJ 500 uM,2%
same,% p24 secretion Week 1,HIV-1 isolate: JR-FL; NB-DNJ 1000 uM,44%
same,% p24 secretion Week 2,HIV-1 isolate: JR-FL; NB-DNJ 1000 uM,9%
same,% p24 secretion Week 3,HIV-1 isolate: JR-FL; NB-DNJ 1000 uM,1%
same,% p24 secretion Week 4,HIV-1 isolate: JR-FL; NB-DNJ 1000 uM,0%
same,% p24 secretion Week 1-rb,HIV-1 isolate: JR-FL; NB-DNJ 1000 uM,56%
same,% p24 secretion Week 2-rb,HIV-1 isolate: JR-FL; NB-DNJ 1000 uM,5%
same,% p24 secretion Week 3-rb,HIV-1 isolate: JR-FL; NB-DNJ 1000 uM,1%
same,% p24 secretion Week 4-rb,HIV-1 isolate: JR-FL; NB-DNJ 1000 uM,0%
same,% p24 secretion Week 1,HIV-1 isolate: 97USNG30; NB-DNJ 250 uM,96%
same,% p24 secretion Week 2,HIV-1 isolate: 97USNG30; NB-DNJ 250 uM,102%
same,% p24 secretion Week 3,HIV-1 isolate: 97USNG30; NB-DNJ 250 uM,100%
same,% p24 secretion Week 4,HIV-1 isolate: 97USNG30; NB-DNJ 250 uM,95%
same,% p24 secretion Week 1-rb,HIV-1 isolate: 97USNG30; NB-DNJ 250 uM,112%
same,% p24 secretion Week 2-rb,HIV-1 isolate: 97USNG30; NB-DNJ 250 uM,109%
same,% p24 secretion Week 3-rb,HIV-1 isolate: 97USNG30; NB-DNJ 250 uM,97%
same,% p24 secretion Week 4-rb,HIV-1 isolate: 97USNG30; NB-DNJ 250 uM,101%
same,% p24 secretion Week 1,HIV-1 isolate: 97USNG30; NB-DNJ 500 uM,74%
same,% p24 secretion Week 2,HIV-1 isolate: 97USNG30; NB-DNJ 500 uM,45%
same,% p24 secretion Week 3,HIV-1 isolate: 97USNG30; NB-DNJ 500 uM,8%
same,% p24 secretion Week 4,HIV-1 isolate: 97USNG30; NB-DNJ 500 uM,3%
same,% p24 secretion Week 1-rb,HIV-1 isolate: 97USNG30; NB-DNJ 500 uM,82%
same,% p24 secretion Week 2-rb,HIV-1 isolate: 97USNG30; NB-DNJ 500 uM,19%
same,% p24 secretion Week 3-rb,HIV-1 isolate: 97USNG30; NB-DNJ 500 uM,7%
same,% p24 secretion Week 4-rb,HIV-1 isolate: 97USNG30; NB-DNJ 500 uM,1%
same,% p24 secretion Week 1,HIV-1 isolate: 97USNG30; NB-DNJ 1000 uM,46%
same,% p24 secretion Week 2,HIV-1 isolate: 97USNG30; NB-DNJ 1000 uM,9%
same,% p24 secretion Week 3,HIV-1 isolate: 97USNG30; NB-DNJ 1000 uM,0%
same,% p24 secretion Week 4,HIV-1 isolate: 97USNG30; NB-DNJ 1000 uM,0%
same,% p24 secretion Week 1-rb,HIV-1 isolate: 97USNG30; NB-DNJ 1000 uM,53%
same,% p24 secretion Week 2-rb,HIV-1 isolate: 97USNG30; NB-DNJ 1000 uM,3%
same,% p24 secretion Week 3-rb,HIV-1 isolate: 97USNG30; NB-DNJ 1000 uM,0%
same,% p24 secretion Week 4-rb,HIV-1 isolate: 97USNG30; NB-DNJ 1000 uM,0%
same,decrease in secretion,HIV-1 isolate: 93IN101; [2],50%
same,% p24 secretion Week 1,HIV-1 isolate: 93IN101; NB-DNJ 250 uM,106%
same,% p24 secretion Week 2,HIV-1 isolate: 93IN101; NB-DNJ 250 uM,81%
same,% p24 secretion Week 3,HIV-1 isolate: 93IN101; NB-DNJ 250 uM,78%
same,% p24 secretion Week 4,HIV-1 isolate: 93IN101; NB-DNJ 250 uM,66%
same,% p24 secretion Week 1-rb,HIV-1 isolate: 93IN101; NB-DNJ 250 uM,96%
same,% p24 secretion Week 2-rb,HIV-1 isolate: 93IN101; NB-DNJ 250 uM,88%
same,% p24 secretion Week 3-rb,HIV-1 isolate: 93IN101; NB-DNJ 250 uM,81%
same,% p24 secretion Week 4-rb,HIV-1 isolate: 93IN101; NB-DNJ 250 uM,72%
same,% p24 secretion Week 1,HIV-1 isolate: 93IN101; NB-DNJ 500 uM,75%
same,% p24 secretion Week 2,HIV-1 isolate: 93IN101; NB-DNJ 500 uM,45%
same,% p24 secretion Week 3,HIV-1 isolate: 93IN101; NB-DNJ 500 uM,7%
same,% p24 secretion Week 4,HIV-1 isolate: 93IN101; NB-DNJ 500 uM,2%
same,% p24 secretion Week 1-rb,HIV-1 isolate: 93IN101; NB-DNJ 500 uM,88%
same,% p24 secretion Week 2-rb,HIV-1 isolate: 93IN101; NB-DNJ 500 uM,37%
same,% p24 secretion Week 3-rb,HIV-1 isolate: 93IN101; NB-DNJ 500 uM,11%
same,% p24 secretion Week 4-rb,HIV-1 isolate: 93IN101; NB-DNJ 500 uM,0%
same,% p24 secretion Week 1,HIV-1 isolate: 93IN101; NB-DNJ 1000 uM,67%
same,% p24 secretion Week 2,HIV-1 isolate: 93IN101; NB-DNJ 1000 uM,17%
same,% p24 secretion Week 3,HIV-1 isolate: 93IN101; NB-DNJ 1000 uM,3%
same,% p24 secretion Week 4,HIV-1 isolate: 93IN101; NB-DNJ 1000 uM,0%
same,% p24 secretion Week 1-rb,HIV-1 isolate: 93IN101; NB-DNJ 1000 uM,51%
same,% p24 secretion Week 2-rb,HIV-1 isolate: 93IN101; NB-DNJ 1000 uM,4%
same,% p24 secretion Week 3-rb,HIV-1 isolate: 93IN101; NB-DNJ 1000 uM,1%
same,% p24 secretion Week 4-rb,HIV-1 isolate: 93IN101; NB-DNJ 1000 uM,0%
